Test results as given in PubChem BioAssay AID342 (DTP/NCI, 2004).
“And” between values parts separate entries of the source, which are not always exact repeats. Equal entries are not always repeated.

System: Swiss mice, Sarcoma 180 sc, mean tumor weight T/C
Assay: NCI In Vivo Anticancer Drug Screen. Data for tumor model Sarcoma 180 (subcutaneous) in Swiss mice
Settings: endpoint: mean tumor weight, higher = larger tumour
Outline: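 Mice bearing transplanted tumors were treated with compound, and survival or tumor size was measured. Values are expressed as the treated-group measurement (T) divided by the vehicle-treated control measurement (C).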

[1] = dose: 14.0 mg/kg/injection, schedule: Q01DX007 (ip), vehicle: carboxymethylcellulose (CMC)
[2] = dose: 5.0 mg/kg/injection, schedule: Q01DX007 (sc), vehicle: steriod suspending solution

CN1CC2CC(C1)c1cccc(=O)n1C2 (configuration not stated)
T/C (dose: 6.6 mg/kg/injection, schedule: Q01DX007 (ip), vehicle: saline): 111 % of control
T/C (dose: 10.0 mg/kg/injection, schedule: Q01DX007 (ip), vehicle: saline): 49 % of control
T/C (dose: 15.0 mg/kg/injection, schedule: Q01DX007 (ip), vehicle: saline): 113 % of control
T/C (dose: 22.0 mg/kg/injection, schedule: Q01DX007 (ip), vehicle: saline): 74 % of control

OCCOCC(F)(F)F
T/C (dose: 125.0 mg/kg/injection, schedule: Q01DX007 (ip), vehicle: saline): 100 % of control
T/C (dose: 250.0 mg/kg/injection, schedule: Q01DX007 (ip), vehicle: saline): 101 % of control
T/C (dose: 500.0 mg/kg/injection, schedule: Q01DX007 (ip), vehicle: saline): 63 % of control

NC(=O)c1ccccc1Nc1ccc([N+](=O)[O-])cc1[N+](=O)[O-]
T/C (dose: 37.5 mg/kg/injection, schedule: Q01DX007 (ip), vehicle: carboxymethylcellulose (CMC)): 92 % of control
T/C (dose: 75.0 mg/kg/injection, schedule: Q01DX007 (ip), vehicle: carboxymethylcellulose (CMC)): 67 % of control

O=C(O)CCCc1ccc(N(CCCl)CCCl)cc1
T/C (dose: 1.93 mg/kg/injection, schedule: Q01DX007 (ip), vehicle: carboxymethylcellulose (CMC)): 49 % of control
T/C (dose: 2.62 mg/kg/injection, schedule: Q#A X014 (ip), vehicle: carboxymethylcellulose (CMC)): 99 % of control
T/C (dose: 3.01 mg/kg/injection, schedule: Q01DX007 (ip), vehicle: carboxymethylcellulose (CMC)): 88 % of control
T/C (dose: 3.85 mg/kg/injection, schedule: Q01DX007 (ip), vehicle: carboxymethylcellulose (CMC)): 41 % of control
T/C (dose: 5.25 mg/kg/injection, schedule: Q#A X014 (ip), vehicle: carboxymethylcellulose (CMC)): 69 % of control
T/C (dose: 5.6 mg/kg/injection, schedule: Q01DX007 (ip), vehicle: carboxymethylcellulose (CMC)): 71 % of control
T/C (dose: 6.03 mg/kg/injection, schedule: Q01DX007 (ip), vehicle: carboxymethylcellulose (CMC)): 86 % of control
T/C (dose: 7.0 mg/kg/injection, schedule: Q01DX007 (ip), vehicle: carboxymethylcellulose (CMC)): 52 % of control and 57 % of control
T/C (dose: 7.7 mg/kg/injection, schedule: Q01DX007 (ip), vehicle: carboxymethylcellulose (CMC)): 37 % of control
T/C (dose: 9.33 mg/kg/injection, schedule: Q01DX007 (ip), vehicle: carboxymethylcellulose (CMC)): 63 % of control
T/C (dose: 10.5 mg/kg/injection, schedule: Q01DX007 (ip), vehicle: carboxymethylcellulose (CMC)): 60 % of control
T/C (dose: 10.5 mg/kg/injection, schedule: Q#A X014 (ip), vehicle: carboxymethylcellulose (CMC)): 18 % of control
T/C (dose: 12.05 mg/kg/injection, schedule: Q01DX007 (ip), vehicle: carboxymethylcellulose (CMC)): 58 % of control
T/C [1]: 23 % of control and 48 % of control

C=CCOc1ccc2c(c1)CC[C@@H]1[C@@H]2CC[C@]2(C)[C@@H](O)[C@H](O)C[C@@H]12
T/C (dose: 2.5 mg/kg/injection, schedule: Q01DX007 (sc), vehicle: steriod suspending solution): 105 % of control
T/C [2]: 120 % of control
T/C (dose: 10.0 mg/kg/injection, schedule: Q01DX007 (sc), vehicle: steriod suspending solution): 82 % of control

COc1cccc2c1C(=O)c1c(O)c3c(c(O)c1C2=O)C[C@@](O)(C(C)=O)C[C@@H]3OC1CC(N)C(O)C(C)O1 (some centres not stated)
T/C (dose: 1.0 mg/kg/injection, schedule: Q01DX007 (sc), vehicle: steriod suspending solution): 86 % of control
T/C [2]: 54 % of control and 42 % of control

CC1CCC2(NC1)OC1CC3C4CC=C5CC(OC6OC(CO)C(OC7OC(C)C(O)C(O)C7O)C(O)C6OC6OC(C)C(O)C(O)C6O)CCC5(C)C4CCC3(C)C1C2C (configuration not stated)
T/C (dose: 150.0 mg/kg/injection, schedule: Q01DX007 (sc), vehicle: steriod suspending solution): 115 % of control
T/C (dose: 300.0 mg/kg/injection, schedule: Q01DX007 (sc), vehicle: steriod suspending solution): 100 % of control
T/C (dose: 500.0 mg/kg/injection, schedule: Q01DX007 (sc), vehicle: steriod suspending solution): 79 % of control

COC(=O)c1[nH]c(=O)[nH]c(=O)c1F
T/C (dose: 4.5 mg/kg/injection, schedule: Q01DX007 (ip), vehicle: carboxymethylcellulose (CMC)): 78 % of control
T/C (dose: 9.0 mg/kg/injection, schedule: Q01DX007 (ip), vehicle: carboxymethylcellulose (CMC)): 44 % of control and 55 % of control
T/C [1]: 39 % of control and 51 % of control and 54 % of control
T/C (dose: 21.0 mg/kg/injection, schedule: Q01DX007 (ip), vehicle: carboxymethylcellulose (CMC)): 26 % of control
T/C (dose: 31.0 mg/kg/injection, schedule: Q01DX007 (ip), vehicle: carboxymethylcellulose (CMC)): 10 % of control and 14 % of control
T/C (dose: 47.0 mg/kg/injection, schedule: Q01DX007 (ip), vehicle: carboxymethylcellulose (CMC)): 5 % of control and 7 % of control and 12 % of control
